Source: paper PMC6766590, “Protocatechuic acid from chicory is bioavailable and undergoes partial glucuronidation and sulfation in healthy humans” (Food Science & Nutrition, 2019)
Where two headings read alike, the source gives them in different places.

Key:
[1] = system: human fecal suspensions with gut microbiota; conditions: for Substrate recovered at the initial time point from the fecal suspensions: 0 hr, initial substrate dose 1 µmol; for Substrate amount in human fecal suspension: initial dose 1 µmol, 37°C anaerobic
Experimental: The column was a Zorbax SB‐C18 column (250 mm × 4.6 mm, 5.0 µm). […] Quantification of phenolic acids was carried out by an internal standard method using calibration curves. […] For each analytical run, a standard curve was prepared in the appropriate matrix (methanol, blank serum, urine, or feces) and used to determine the content of phenolic acids in chicory or biological samples. The detection limit for phenolic acids (10‐fold baseline noise) under the conditions used in this study was 1 ng/ml in serum and 5 ng/ml in urine and feces, and values below this concentration were reported as zero. […] Mycophenolic acid was selected as the internal standard.
Fresh feces (2 g) collected from human adults were mixed with 10 ml of brain–heart infusion medium, and the resulting solution was filtered with autoclaved gauze to remove the dregs before use. […] The mixture was fermented at 37°C under anaerobic conditions using the anaerobic chamber. […] All incubations were performed in triplicate. At the same time, the fecal suspension was incubated without phenolic acids as a negative control.

human gut microbiota = system: human gut microbiota; design: method as in Gonthier et al., 2006; conditions: ref Gonthier et al., 2006; cited from earlier work
[2] = design: method as in Wang, Zou, et al., 2011; conditions: ApoE^‐/‐ mice, single oral gavage 25 mg/kg; ref Wang, Zou, et al., 2011; cited from earlier work
[3] = Urinary excretion/recovery of protocatechuic acid and conjugates after 150 g of chicory; format: in vivo, human
Experimental: (§1) A single-dose pharmacokinetic trial was conducted to evaluate the acute (24 hr) bioavailability of protocatechuic acid from chicory juice. Qualified participants were asked to consume foods low in phytochemicals for three days prior to the chicory juice intervention. Participants were also asked to consume a diet without vegetables, fruits, and plant-based beverages for the day prior to the intervention and the intervention day. The purpose of these dietary restrictions was to reduce any residual dietary phenolic compounds from the body (these compounds are typically cleared from blood, urine, and feces within 48 hr of consumption) and to ensure phenolic compounds present in the blood, urine, and feces samples collected during the intervention were derived from the chicory juice alone. Prior to administering the chicory juice, overnight fasting blood, urine, and feces (first-morning void) were collected at time 0 hr as the baseline. A single dose of chicory juice (150 g of chicory) was then orally ingested by each of the participants under close observation by the researcher in 5 min. No other foods or beverages were provided at this time. The chicory juice was prepared together approximately 10 min prior to this pharmacokinetic trial. One portion of chicory juice was kept to quantify the content of protocatechuic acid. […] Fecal samples from 0-24 hr after chicory juice drinking were collected. […] Mycophenolic acid was selected as the internal standard. The pharmacokinetic parameters of protocatechuic acid in the free, glucuronide, and sulfate conjugates were calculated using DAS 2.1 (BioGuider Co.), with a noncompartmental model: maximum serum concentrations (Cmax); time to achieve maximum serum concentrations (Tmax); the area under the concentration-time curve to 24 hr (AUC0-24); and terminal elimination half-life (T1/2z). The apparent bioavailability of protocatechuic acid together was quantified using AUC0-24 divided by its ingested amount. Urinary and fecal recoveries were calculated using the total content of urinary and fecal protocatechuic acid divided by its ingested amount.

[4] = Fecal excretion/recovery of protocatechuic acid and conjugates after 150 g of chicory; format: in vivo, human
Experimental: as §1

[5] = design: method as in Chen et al., (2012); conditions: CF‐1 mice, oral 50 mg/kg; ref Chen et al., (2012); cited from earlier work
[6] = Single-dose pharmacokinetic trial, serum protocatechuic acid and conjugates after 150 g of chicory; format: in vivo, human
Experimental: as §1

mouse gut microbiota = system: mouse gut microbiota; design: method as in Lin et al., 2016; conditions: ref Lin et al., 2016; cited from earlier work

For `O=C(/C=C/c1ccc(O)c(O)c1)O[C@@H]1C[C@@](O)(C(=O)O)C[C@@H](O)[C@@H]1O` [5‐caffeoylquinic acid], the “Substrate recovered at the initial time point from the fecal suspensions” value (shortened to “Substrate recovered”) [1] was 79.3 ± 5.7% and the “Substrate amount in human fecal suspension” value (“Substrate amount” for short) ([1]; incubation time 0 h) was 0.79 ± 0.06 µmol.

In the case of `O=C(O)/C=C/c1ccc(O)c(O)c1` [Caffeic acid], the “Substrate recovered” value [1] is reported as 86.0 ± 3.0%, the “Substrate amount” value ([1]; incubation time 0 h) is reported as 0.86 ± 0.03 µmol and the “Substrate amount” value ([1]; incubation time 6 h) is reported as 0.16 ± 0.11 µmol.

For `O=C(/C=C/c1ccc(O)c(O)c1)O[C@@H](C(=O)O)[C@@H](O)C(=O)O` [Caftaric acid], the “Substrate recovered” value [1] is listed as 91.5% ± 4.7%, the “Substrate amount” value ([1]; incubation time 0 h) is listed as 0.92 ± 0.05 µmol and the “Generation of protocatechuic acid by human gut microbiota metabolism” value (human gut microbiota) is listed as “cannot generate protocatechuic acid”.

In the case of `O=C(O)c1cc(O)c(O)c(O)c1` [Gallic acid], the “Substrate recovered” value [1] is reported as 95.8 ± 3.3%, the “Substrate amount” value ([1]; incubation time 0 h) is reported as 0.96 ± 0.03 µmol and the “Substrate amount” value ([1]; incubation time 6 h) is reported as 0.75 ± 0.14 µmol. The “Substrate amount” value ([1]; incubation time 12 h) was 0.60 ± 0.18 µmol and the “Substrate amount” value ([1]; incubation time 24 h) was 0.27 ± 0.23 µmol.

In the case of `O=C(O)c1ccc(O)c(O)c1` [PCA‐F, 3,4‐dihydroxybenzoic acid], the “Formation of protocatechuic acid from gallic, caffeic, 5‐caffeoylquinic, caftaric or chicoric acid in human fecal suspensions” value ([1]; 1 µmol substrate, up to 24 hr, listed as protocatechuic acid) is listed as “could not be detected”, the “Maximal level in plasma” value [2] is listed as “approximately 4.3 µM” and the Recovery in urine ([3]; 16 healthy adults, 150 g of chicory oral, 0-24 hr urine) is listed as 12.17 % of the ingested dose. The “Time at which urinary excretion reached the plateau” value ([3]; 16 healthy adults, after chicory juice consumption) was 6 h, the dose excreted ([3]; human, 150 g of chicory (as juice), 16 healthy adults, 150 g of chicory oral, 0-24 hr urine) was 5.02% and the Recovery in urine ([3]; men, n = 8, 150 g of chicory) was 5.66 ± 3.87 % of the ingested dose. The Recovery in urine ([3]; women, n = 8, 150 g of chicory) was 4.38 ± 2.28 % of the ingested dose, the Recovery in feces ([4]; 16 healthy adults, 150 g of chicory oral, 0-24 hr feces) was 12.79 % of the ingested dose and the “Mean content in feces” value ([4]; 16 healthy adults, feces 0-24 hr after 150 g of chicory) was 8.00 ± 3.17 µmol. For the same compound, the dose excreted ([4]; human, 150 g of chicory (as juice), 16 healthy adults, 150 g of chicory oral, 0-24 hr feces) was 3.25%, the Recovery in feces ([4]; men, n = 8, 150 g of chicory) was 2.52 ± 0.87 % of the ingested dose and the Recovery in feces ([4]; women, n = 8, 150 g of chicory) was 3.97 ± 1.38 % of the ingested dose. The Peak plasma level [5] was 73.6 µM, the “T1/2z, terminal elimination half‐life” value ([6]; 16 healthy adults, 150 g of chicory oral, serum) was 1.72 ± 0.35 h and the “Recovery in blood circulation” value ([6]; 16 healthy adults, 150 g of chicory oral, AUC0‐24 divided by ingested amount) was 15.60% ± 4.21%. The half-life ([6]; both sexes, human, serum, 16 healthy adults, 150 g of chicory oral, read-out: T1/2z in serum (converted)) was 1.72 ± 0.35 h, the AUC(0-t) ([6]; both sexes, human, 16 healthy adults, 150 g of chicory oral, serum, read-out: AUC0−24, area under the concentration–time curve to 24 hr) was 16.9 ± 3 µM·h and the Cmax ([6]; both sexes, human, 16 healthy adults, 150 g of chicory oral, serum, read-out: Maximum (peak) serum concentration, Cmax) was 3.27 µM. For the same compound, the Tmax ([6]; both sexes, human, 16 healthy adults, 150 g of chicory oral, serum, read-out: Time of peak serum concentration) was 1 h, the “Ingested protocatechuic acid recovered in the blood circulation, urine, and feces together” value ([6]; both, human, in vivo, po) was 48.74% and the “Recovery in blood circulation” value ([6]; both, human, in vivo, po) was “about 23.79 % of the ingested dose”. For the same compound, the AUC(0-t) ([6]; female, human, oral, women, n = 8, 150 g of chicory, serum, read-out: AUC0−24) was 17.2 ± 1.81 µM·h, the Cmax ([6]; female, human, oral, women, n = 8, 150 g of chicory, serum, read-out: Cmax) was 3.45 µM and the half-life ([6]; female, human, oral, women, n = 8, 150 g of chicory, serum, read-out: T1/2z (converted)) was 1.81 ± 0.48 h. For the same compound, the Tmax ([6]; female, human, oral, women, n = 8, 150 g of chicory, serum, read-out: Tmax) was 1 h, the AUC(0-t) ([6]; male, human, oral, men, n = 8, 150 g of chicory, serum, read-out: AUC0−24) was 16.6 ± 1.63 µM·h and the Cmax ([6]; male, human, oral, men, n = 8, 150 g of chicory, serum, read-out: Cmax) was 3.1 µM. For the same compound, the half-life ([6]; male, human, oral, men, n = 8, 150 g of chicory, serum, read-out: T1/2z (converted)) was 1.63 ± 0.04 h, the Tmax ([6]; male, human, oral, men, n = 8, 150 g of chicory, serum, read-out: Tmax) was 1 h and the “Recovery in blood circulation” value ([6]; men, n = 8, 150 g of chicory) was 17.18 ± 4.05 % of the ingested dose. The “Recovery in blood circulation” value ([6]; women, n = 8, 150 g of chicory) was 14.01 ± 3.74 % of the ingested dose.

For `O=c1cc(-c2ccc(O)cc2)oc2cc(O)cc(O)c12` [apigenin], the “Catabolism into protocatechuic acid by mouse gut microbiota” value (mouse gut microbiota) is given as “intensively catabolized into protocatechuic acid”.

In the case of `O=c1c(O)c(-c2ccc(O)c(O)c2)oc2cc(O)cc(O)c12` [quercetin], the “Catabolism into protocatechuic acid by mouse gut microbiota” value (mouse gut microbiota) is listed as “intensively catabolized into protocatechuic acid”.
